In PubChem BioAssay (NCI):
“And” between values parts separate entries of the source, which are not always exact repeats. Equal values may be shown once.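 Grown in 96-well plates, cells were treated for 48 hours with each compound at five concentrations. Insufficient inhibition: endpoint recorded as highest concentration tested. GI50: concentration for 50% inhibition of growth. TGI is the concentration that stops growth completely.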

Experiments:
Assay in all cases: NCI anticancer screen, dose series, 48 h
DMS 114 small cell lung = tested on: DMS 114 small cell lung
SNB-78 CNS = tested on: SNB-78 CNS
XF 498 CNS = tested on: XF 498 CNS
DLD-1 colon = tested on: DLD-1 colon
KM20L2 colon = tested on: KM20L2 colon
M19-MEL melanoma = tested on: M19-MEL melanoma
HOP-18 NSCLC = tested on: HOP-18 NSCLC
RXF-631 renal = tested on: RXF-631 renal
SN12K1 renal = tested on: SN12K1 renal
MDA-N = tested on: MDA-N

Row | Compound | TGI (DMS 114 small cell lung) | TGI (SNB-78 CNS) | TGI (XF 498 CNS) | TGI (DLD-1 colon) | TGI (KM20L2 colon) | TGI (M19-MEL melanoma) | TGI (HOP-18 NSCLC) | TGI (RXF-631 renal) | TGI (MDA-N) | further results
1 | O=C(c1ccccn1)c1nc(-c2ccc(Cl)c(Cl)c2)nc2ccc(Cl)cc12 | > 100 µM | > 100 µM | 55.3 µM | > 100 µM | > 100 µM | > 100 µM |  |  |  | 
2 | c1ccc(CCCC2Sc3cccc4cccc(c34)S2)cc1 | > 100 µM | > 100 µM | > 100 µM | > 100 µM | > 100 µM | > 100 µM |  |  |  | 
3 | CCCCNC(=O)OCC(COc1ccccc1OC)OC(=O)NCCCC (configuration not stated) | > 100 µM | > 100 µM | > 100 µM | > 100 µM | > 100 µM | > 100 µM | > 100 µM | > 100 µM |  | 
4 | S=c1nc[nH]c2nc[nH]c12 | 385 µM | 670 µM | 163 µM | > 750 µM | 691 µM | > 734 µM | 644 µM |  | 636 µM and > 750 µM | TGI (SN12K1 renal): 527 µM; GI50 (MDA-N): 7.85 µM
5 | Cc1cc(Cl)ccc1NC(=O)C(=O)Cc1ccc([N+](=O)[O-])c([N+](=O)[O-])c1CC(=O)C(=O)Nc1ccc(Cl)cc1C | > 100 µM | > 100 µM | > 100 µM |  | > 100 µM | > 100 µM | > 100 µM |  |  | 
6 | COc1ccc2[nH]c3c(C)c4cc[n+](C)cc4c(C)c3c2c1 | 2.52 µM and 1.72 µM and 1.56 µM |  |  |  | 34.2 µM [middle of 4 runs] | 3.69 µM and 2.48 µM and 2.89 µM |  |  | > 100 µM and 84.9 µM and 63 µM | GI50 (DMS 114 small cell lung): 0.104 µM; GI50 (SNB-78 CNS): 0.478 µM and 0.243 µM; GI50 (SN12K1 renal): 0.146 µM; TGI (SN12K1 renal): 2.96 µM and 2.75 µM and 1.85 µM; GI50 (DLD-1 colon): 0.889 µM and 0.835 µM; GI50 (KM20L2 colon): 1.68 µM and 1.35 µM; GI50 (M19-MEL melanoma): 0.327 µM; GI50 (MDA-N): 9.89 µM and 2.19 µM and 14.7 µM
7 | C/C(=C1/N=C(c2ccccc2)OC1=O)c1ccc(C)cc1 |  |  |  |  |  |  |  |  | > 100 µM | 
8 | COc1cc([N+](=O)[O-])c(S(=O)(=O)O)cc1N |  |  |  |  |  |  |  |  | > 100 µM | 
9 | c1ccc(CCCNc2nnnc3ccccc23)cc1 |  |  |  |  |  |  |  |  | > 100 µM | 
10 | COc1cc2c(cc1OC)C(=O)Cc1ccc3c(c1CNCC2)OCO3 | > 100 µM | > 100 µM | > 100 µM | > 100 µM | > 100 µM | > 100 µM | > 100 µM |  |  | 
11 | CC(C)c1cccc(C(C)C)c1NC(=O)C(=O)CC(=O)CC(c1ccccc1)c1c(O)c2ccccc2oc1=O (configuration not stated) | > 100 µM |  |  | > 100 µM | > 100 µM |  |  |  |  | 
12 | CNS(=O)(=O)c1ccccc1C(=N)c1ccccc1 |  |  |  |  |  |  |  |  | > 100 µM | 
13 | Cc1nc2nn(Cc3ccccc3)cc2c(=O)o1 | > 100 µM | > 100 µM | > 100 µM | > 100 µM | > 100 µM | > 100 µM |  | > 100 µM |  | 
14 | CCOc1ccccc1NC(=O)C(=O)C(C(=O)c1ccc2ccccc2c1)C1OC(=O)c2ccccc21 (configuration not stated) | 33.6 µM | 75.8 µM |  | 33.4 µM | 77 µM |  | 36.3 µM | 22.4 µM |  | 
15 | C[n+]1c2cc(N)ccc2cc2ccc(N)cc21 (tested in a mixture with another compound) |  |  |  |  |  |  |  |  | 2.06 µM | GI50 (MDA-N): 0.64 µM
16 | Fc1ccc2c(c1)SC1Oc3ccccc3-c3c1c-2nn3-c1ccccc1 (configuration not stated) | > 100 µM | > 100 µM | > 100 µM | > 100 µM | > 100 µM | > 100 µM | > 100 µM | > 100 µM |  | 
17 | O=C(N[C@@H]1C=CCC[C@@H]1c1ccccc1)OCc1ccccc1 | 45.1 µM | 93 µM | 35.9 µM | > 85.6 µM | 40.6 µM | 45.1 µM | 46.9 µM |  |  | 
18 | CC(C)[C@H]1CO[C@@H]2O[C@H](C)CC(=O)N21 | > 100 µM |  |  | > 100 µM | > 100 µM | > 100 µM | > 100 µM |  |  | 
19 | Clc1ccccc1-c1nc(-c2ccncc2)no1 |  |  |  |  |  |  |  |  | > 100 µM | 
20 | C/C=C/C(=O)[C@@H](O)C(C)C |  | > 100 µM |  |  | > 100 µM | > 100 µM |  |  |  | 

Row | Compound | TGI (DMS 114 small cell lung) | TGI (SNB-78 CNS) | TGI (XF 498 CNS) | TGI (DLD-1 colon) | TGI (KM20L2 colon) | TGI (M19-MEL melanoma) | TGI (HOP-18 NSCLC) | TGI (RXF-631 renal) | TGI (MDA-N) | further results
21 | Clc1ccccc1C1N2CCCCC2[C@@H]2c3[nH]c4ccccc4c3CCN12 (some centres not stated) | 41.6 µM | 61.1 µM | 35.4 µM | 37.5 µM | 34.1 µM | 29.2 µM | > 100 µM |  |  | 
22 | COc1ccc(C(=O)Nc2ccc(S(=O)(=O)NCC(=O)O)cc2)cc1 |  |  | > 100 µM | > 100 µM | > 100 µM | > 100 µM | > 100 µM | > 100 µM |  | 
23 | CCOC(=O)C12CCSC1C1(C#N)C(C#N)=CC2(N=P(c2ccccc2)(c2ccccc2)c2ccccc2)n2c(=O)n(-c3ccccc3)c(=O)n21 (configuration not stated) | 96.6 µM | > 100 µM | 78.3 µM | > 100 µM | > 100 µM | 98.5 µM |  | > 100 µM |  | 
24 | CCCCCCCCCCCCC/C=C1\C[C@H](O)COC1=O |  | 33.9 µM | 30.5 µM | 32 µM | 31.7 µM | 33.6 µM | 31.6 µM |  |  | 
25 | CN(C)CCNC(=O)c1cccc2ccc(-c3cccnc3)nc12 | 18.6 µM | 72.4 µM |  | 60.4 µM |  | 16.9 µM | 62.9 µM | 23.1 µM |  | 
26 | O=c1c2cc(Br)ccc2nc(-c2ccccc2)n1NCC1(O)OCC(O)C(O)C1O (configuration not stated) | > 100 µM | > 100 µM |  |  | > 100 µM | > 100 µM |  |  |  | 
27 | Nc1c(S(=O)(=O)O)cc(Nc2cccc(S(N)(=O)=O)c2)c2c1C(=O)c1ccccc1C2=O |  |  |  |  |  |  |  |  | 42.8 µM | 
28 | Cc1ccc(/C=N/NS(=O)(=O)c2ccccc2)cc1 | > 100 µM | > 100 µM | > 100 µM | > 100 µM | > 100 µM |  | > 100 µM | > 100 µM |  | 
29 | COc1cc[c]([Sb]([Br])([CH]=C(C)C)([CH]=C(C)C)[CH]=C(C)C)cc1 | 20.8 µM |  |  | > 100 µM | > 100 µM | > 100 µM |  |  |  | GI50 (DMS 114 small cell lung): 3.02 µM; GI50 (DLD-1 colon): 24.1 µM; GI50 (KM20L2 colon): 5.06 µM; GI50 (M19-MEL melanoma): 3.1 µM
30 | Cc1coc2c1CC1OC1(C)CCC1OC1(C)C2 (configuration not stated) |  |  |  |  |  |  |  |  | > 100 µM | 
31 | CC1(C(=O)NCCN(CCNC(=O)C2(C)CC3(C)CC(C)(C2)C(=O)NC3=O)CCNC(=O)C2(C)CC3(C)CC(C)(C2)C(=O)NC3=O)CC2(C)CC(C)(C1)C(=O)NC2=O (configuration not stated) | > 100 µM | > 100 µM | > 100 µM |  | > 100 µM | > 100 µM | > 100 µM |  |  | 
32 | NC1=NN(c2ccccc2)C(=O)C1/C(=N\NC(=O)c1cc2ccccc2cc1O)C(=O)Nc1nc([N+](=O)[O-])cs1 (configuration not stated) | 45.6 µM | > 100 µM | > 100 µM | > 77.2 µM | > 100 µM | > 82.9 µM | > 100 µM | > 71.7 µM |  | 
33 | NCCn1ccc(NC(c2ccccc2)(c2ccccc2)c2ccccc2)nc1=O | 38.6 µM | 42.5 µM | 26.1 µM | > 100 µM | 32.2 µM | 42.2 µM | > 100 µM |  |  | 
34 | COC1=C(C)C(=O)C2=C(C1=O)C(CO)N1C(C#N)C3CC4C(C1C2N1CCOC41)N3C (configuration not stated) | 0.0348 µM and 0.0203 µM |  | 0.0183 µM and 0.0285 µM | 0.836 µM and 5.2 µM | 0.83 µM and 0.104 µM | 0.177 µM and 0.11 µM | 0.326 µM | 3.4 µM | 0.0156 µM and < 0.0374 µM | GI50 (HOP-18 NSCLC): 0.0484 µM; GI50 (DMS 114 small cell lung): 0.0141 µM; TGI (SN12K1 renal): 17.4 µM; GI50 (XF 498 CNS): 0.00607 µM; GI50 (KM20L2 colon): 0.0261 µM; GI50 (M19-MEL melanoma): 0.0319 µM
35 | O=C1c2ccccc2C(=O)c2c(NC(=O)C(Cl)CCl)cccc21 (configuration not stated) |  |  |  |  |  |  |  |  | 24.6 µM | 
36 | NC(=S)N/N=C1\C(=O)N(CCc2ccccc2)C(=O)C1C(=O)NCCc1ccccc1 (configuration not stated) | > 100 µM | > 100 µM |  |  | > 100 µM | > 100 µM | > 100 µM |  |  | 
37 | [C-]#[O+].[C-]#[O+].[Ir].[O-]c1ccc2ccccc2c1N=Nc1ccccc1 | 8.68 µM | 53 µM | 5.18 µM | 12.4 µM |  | 21.2 µM | 10.3 µM |  | 18.8 µM | GI50 (HOP-18 NSCLC): 0.313 µM; GI50 (DMS 114 small cell lung): 2.68 µM; GI50 (SNB-78 CNS): 24.3 µM; GI50 (XF 498 CNS): 2.14 µM; GI50 (DLD-1 colon): 3.3 µM; GI50 (M19-MEL melanoma): 3.24 µM
38 | Cc1cc2c(=O)cc(-c3ccc(C(F)(F)F)cc3)oc2c(C(=O)O)c1C | > 100 µM | > 100 µM | > 100 µM | > 100 µM | > 100 µM | > 100 µM | > 100 µM | > 100 µM |  | 
39 | O=C(c1ccco1)c1ccccc1C(=O)c1ccco1 | > 100 µM | > 100 µM | > 100 µM | > 100 µM | > 100 µM | > 100 µM | > 100 µM | > 100 µM |  | 
40 | N.N.N.N.N.N#N.[Cl-].[Os+7] |  | > 100 µM |  | > 100 µM | > 100 µM |  | > 100 µM |  |  | GI50 (HOP-18 NSCLC): > 100 µM; GI50 (SNB-78 CNS): > 100 µM; GI50 (DLD-1 colon): > 100 µM; GI50 (KM20L2 colon): > 100 µM
